Laboratory results published in ChEMBL document CHEMBL1201862, “PubChem BioAssay data set” (2004).
The source made the active and inactive calls. Cut-off read from the data, not from the text of the source, for most assays here: actives have a measured IC50 and inactives only a lower limit.

What was measured:
Caspase-3 = biological target: T1, Caspase-3 (Homo sapiens, UniProt P42574); assay type: functional;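 note: Dose-response selectivity test against caspase-3 for candidate inhibitors of sentrin-specific proteases (SENPs)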
T1 sequence (P42574 whole entry): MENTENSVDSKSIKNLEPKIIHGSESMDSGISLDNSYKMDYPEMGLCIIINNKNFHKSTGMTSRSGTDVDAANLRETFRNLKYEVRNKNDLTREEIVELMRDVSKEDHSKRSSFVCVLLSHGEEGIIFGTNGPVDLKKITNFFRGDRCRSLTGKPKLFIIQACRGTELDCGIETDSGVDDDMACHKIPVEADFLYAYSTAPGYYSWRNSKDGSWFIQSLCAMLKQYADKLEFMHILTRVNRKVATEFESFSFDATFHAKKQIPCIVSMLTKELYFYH

[1] = biological target: T2, Sentrin-specific protease 7 (Homo sapiens, UniProt Q9BQF6); assay type: functional;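 note: Luminescence-based dose-response confirmation of ultra-high-throughput screening hits, measuring inhibition of SENP7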
T2 sequence (Q9BQF6 whole entry): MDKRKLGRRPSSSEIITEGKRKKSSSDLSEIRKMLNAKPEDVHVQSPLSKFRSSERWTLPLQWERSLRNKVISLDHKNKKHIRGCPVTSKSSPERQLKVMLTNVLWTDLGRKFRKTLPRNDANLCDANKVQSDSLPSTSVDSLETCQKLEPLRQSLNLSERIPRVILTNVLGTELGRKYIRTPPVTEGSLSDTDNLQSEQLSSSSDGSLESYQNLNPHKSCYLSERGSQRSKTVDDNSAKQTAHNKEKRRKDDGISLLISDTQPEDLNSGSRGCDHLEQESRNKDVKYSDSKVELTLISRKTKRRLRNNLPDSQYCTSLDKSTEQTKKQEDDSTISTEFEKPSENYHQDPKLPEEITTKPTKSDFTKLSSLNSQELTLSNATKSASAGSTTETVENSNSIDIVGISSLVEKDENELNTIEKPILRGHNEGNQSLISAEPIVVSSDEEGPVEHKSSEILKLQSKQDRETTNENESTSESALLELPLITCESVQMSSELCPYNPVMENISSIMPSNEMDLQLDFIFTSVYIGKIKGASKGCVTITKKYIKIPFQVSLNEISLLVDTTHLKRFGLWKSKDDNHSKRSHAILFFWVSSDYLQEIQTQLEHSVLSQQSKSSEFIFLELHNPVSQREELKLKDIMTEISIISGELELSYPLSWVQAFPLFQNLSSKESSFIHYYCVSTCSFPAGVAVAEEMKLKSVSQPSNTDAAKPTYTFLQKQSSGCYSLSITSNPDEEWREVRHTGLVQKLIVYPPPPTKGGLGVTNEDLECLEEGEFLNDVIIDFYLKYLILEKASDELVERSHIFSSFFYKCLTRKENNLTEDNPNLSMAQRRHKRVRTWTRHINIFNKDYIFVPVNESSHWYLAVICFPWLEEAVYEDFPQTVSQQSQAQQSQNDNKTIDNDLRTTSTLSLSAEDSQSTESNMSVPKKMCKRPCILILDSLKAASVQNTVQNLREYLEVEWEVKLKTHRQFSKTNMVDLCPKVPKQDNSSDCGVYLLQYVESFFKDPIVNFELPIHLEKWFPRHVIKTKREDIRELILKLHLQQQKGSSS

[2] = biological target: T3, Sentrin-specific protease 6 (Homo sapiens, UniProt Q9GZR1); assay type: functional;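 note: Luminescence-based dose-response confirmatory assay of SENP6 inhibition, following up an ultra-high-throughput screen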
T3 sequence (Q9GZR1 whole entry): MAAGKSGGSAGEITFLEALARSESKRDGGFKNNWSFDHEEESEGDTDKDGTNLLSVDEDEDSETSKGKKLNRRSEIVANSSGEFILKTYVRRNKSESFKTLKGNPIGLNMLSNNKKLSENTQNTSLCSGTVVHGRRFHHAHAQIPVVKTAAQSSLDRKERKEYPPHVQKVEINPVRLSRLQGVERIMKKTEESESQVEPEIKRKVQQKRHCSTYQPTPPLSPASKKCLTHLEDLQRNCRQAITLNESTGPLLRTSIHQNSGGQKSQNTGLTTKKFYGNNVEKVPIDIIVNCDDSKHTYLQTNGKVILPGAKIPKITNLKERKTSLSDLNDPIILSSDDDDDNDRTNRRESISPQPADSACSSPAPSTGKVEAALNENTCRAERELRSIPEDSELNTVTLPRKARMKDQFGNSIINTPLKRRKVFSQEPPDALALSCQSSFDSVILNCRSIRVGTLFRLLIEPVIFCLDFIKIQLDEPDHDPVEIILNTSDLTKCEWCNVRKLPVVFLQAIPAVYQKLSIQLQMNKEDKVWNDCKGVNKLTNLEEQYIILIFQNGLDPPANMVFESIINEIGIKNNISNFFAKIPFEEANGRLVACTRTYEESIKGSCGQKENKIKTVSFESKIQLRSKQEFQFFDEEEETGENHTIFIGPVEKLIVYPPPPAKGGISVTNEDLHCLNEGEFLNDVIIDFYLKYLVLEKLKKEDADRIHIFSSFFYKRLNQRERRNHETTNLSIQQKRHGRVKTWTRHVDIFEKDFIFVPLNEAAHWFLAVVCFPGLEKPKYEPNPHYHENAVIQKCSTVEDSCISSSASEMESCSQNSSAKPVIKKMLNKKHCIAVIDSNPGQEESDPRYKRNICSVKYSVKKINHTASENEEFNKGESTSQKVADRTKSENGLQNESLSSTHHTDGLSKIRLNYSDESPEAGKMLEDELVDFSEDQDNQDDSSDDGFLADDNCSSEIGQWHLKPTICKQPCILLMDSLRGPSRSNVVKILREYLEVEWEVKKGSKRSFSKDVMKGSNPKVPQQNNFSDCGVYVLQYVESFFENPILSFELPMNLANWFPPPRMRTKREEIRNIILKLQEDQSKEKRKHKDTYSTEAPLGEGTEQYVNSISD

[3] = biological target: T4, Sentrin-specific protease 8 (Homo sapiens, UniProt Q96LD8); assay type: functional;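 note: luminescence read-out of SENP8 inhibition, dose-response confirmation following an ultra-high-throughput screen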
T4 sequence (Q96LD8 whole entry): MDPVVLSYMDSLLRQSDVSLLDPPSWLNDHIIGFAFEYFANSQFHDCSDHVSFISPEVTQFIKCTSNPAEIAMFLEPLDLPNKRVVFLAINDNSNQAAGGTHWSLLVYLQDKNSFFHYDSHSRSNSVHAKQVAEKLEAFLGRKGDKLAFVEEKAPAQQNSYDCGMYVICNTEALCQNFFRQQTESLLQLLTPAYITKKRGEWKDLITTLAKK

[4] = biological target: T5, DNA repair and recombination protein RAD54-like (Homo sapiens, UniProt Q92698); experiment: RAD54 Holliday junction migration blockers – biochemical, fluorescence, cherry-picked samples, dose series, confirmation (AID 651657); assay type: functional
T5 sequence (Q92698 whole entry): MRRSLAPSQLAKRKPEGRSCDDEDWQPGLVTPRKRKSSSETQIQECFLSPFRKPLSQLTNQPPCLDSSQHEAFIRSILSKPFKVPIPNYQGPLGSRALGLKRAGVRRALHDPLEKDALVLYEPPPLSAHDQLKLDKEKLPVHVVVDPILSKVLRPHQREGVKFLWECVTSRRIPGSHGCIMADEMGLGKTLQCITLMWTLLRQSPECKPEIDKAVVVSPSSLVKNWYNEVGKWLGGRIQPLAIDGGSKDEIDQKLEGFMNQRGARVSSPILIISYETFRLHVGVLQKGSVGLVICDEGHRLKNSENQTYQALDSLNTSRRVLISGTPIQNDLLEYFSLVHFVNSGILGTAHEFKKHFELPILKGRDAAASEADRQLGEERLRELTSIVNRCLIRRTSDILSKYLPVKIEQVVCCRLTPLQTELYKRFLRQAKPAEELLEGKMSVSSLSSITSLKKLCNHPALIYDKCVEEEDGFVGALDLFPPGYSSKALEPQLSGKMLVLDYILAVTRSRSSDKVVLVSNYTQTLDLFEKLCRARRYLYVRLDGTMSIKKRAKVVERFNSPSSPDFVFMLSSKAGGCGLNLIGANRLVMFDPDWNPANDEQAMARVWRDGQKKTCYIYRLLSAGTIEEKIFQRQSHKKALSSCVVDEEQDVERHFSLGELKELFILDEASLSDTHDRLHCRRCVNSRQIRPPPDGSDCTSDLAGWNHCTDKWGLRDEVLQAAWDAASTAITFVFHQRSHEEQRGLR

[5] = biological target: T6, Heat shock factor protein 1 (Mus musculus, UniProt P38532); experiment: enhancement of HSF1-driven luciferase signal – cell-based, NIH3T3, luminescence, dose retest, confirmation (AID 435004); assay type: functional;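 note: stress induced by proteasome inhibitor MG132 added 30 min after compound; luciferase reporter driven by HSF1 response element in NIH3T3 cells; actives raise luminescence as potentiators of the MG132 stress response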
T6 sequence (P38532 whole entry): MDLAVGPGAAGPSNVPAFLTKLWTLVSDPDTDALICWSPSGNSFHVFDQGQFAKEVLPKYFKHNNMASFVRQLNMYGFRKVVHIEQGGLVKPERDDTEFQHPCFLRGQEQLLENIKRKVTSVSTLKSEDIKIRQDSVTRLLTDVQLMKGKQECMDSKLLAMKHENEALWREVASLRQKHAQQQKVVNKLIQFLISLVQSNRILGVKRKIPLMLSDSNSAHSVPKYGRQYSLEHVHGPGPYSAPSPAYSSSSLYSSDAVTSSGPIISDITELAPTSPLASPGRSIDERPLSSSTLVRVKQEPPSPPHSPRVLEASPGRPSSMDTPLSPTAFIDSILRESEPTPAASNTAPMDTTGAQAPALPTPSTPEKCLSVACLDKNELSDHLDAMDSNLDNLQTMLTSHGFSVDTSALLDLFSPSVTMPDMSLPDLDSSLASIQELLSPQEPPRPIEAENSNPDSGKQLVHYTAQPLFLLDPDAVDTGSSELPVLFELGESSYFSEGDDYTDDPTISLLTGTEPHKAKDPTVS

Cytochrome P450 2D6 = Cytochrome P450 2D6 (Homo sapiens, UniProt P10635);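 note: CYP2D6 member of a cytochrome P450 panel assay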
Cytochrome P450 2D6, sequence (P10635 whole entry): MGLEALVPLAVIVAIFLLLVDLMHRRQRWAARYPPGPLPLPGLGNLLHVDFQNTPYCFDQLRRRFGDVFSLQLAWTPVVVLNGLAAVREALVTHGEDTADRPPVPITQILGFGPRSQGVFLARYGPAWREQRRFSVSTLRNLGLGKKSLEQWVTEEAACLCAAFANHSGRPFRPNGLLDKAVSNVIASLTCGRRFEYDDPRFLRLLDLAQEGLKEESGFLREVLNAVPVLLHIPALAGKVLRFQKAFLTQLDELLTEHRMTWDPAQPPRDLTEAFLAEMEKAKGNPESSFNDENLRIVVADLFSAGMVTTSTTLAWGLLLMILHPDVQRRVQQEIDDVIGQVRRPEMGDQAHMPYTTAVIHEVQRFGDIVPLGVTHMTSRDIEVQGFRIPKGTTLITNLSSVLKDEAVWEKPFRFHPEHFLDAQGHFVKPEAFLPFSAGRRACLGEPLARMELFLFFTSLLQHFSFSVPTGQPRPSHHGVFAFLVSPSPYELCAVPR

IC50 (Caspase-3)	IC50 [1]	IC50 [2]	AC50 [4]	EC50 [5]	AC50 (Cytochrome P450 2D6)	SMILES	IC50 [3]
30.8 µM (active)	5.64 µM (active)	9.82 µM (active)				CCOc1ccccc1NC(=O)Nc1ccc2c(c1)CCC2	9.29 µM (active)
			8.93 µM (active)			CN1CCN(c2nc(-c3cccs3)nc3ccccc23)CC1	
61.3 µM (active)	11.6 µM (active)	47.6 µM (active)		49.2 µM (active)	25.1 µM (inconclusive)	CCOC(=O)Nc1ccc(C(=O)Oc2ccccc2)c(O)c1	79.9 µM (active)
18.6 µM (active)	10.1 µM (active)	30.7 µM (active)				CSc1ccccc1NC(=O)c1cc(C2CC2)on1	33.3 µM (active)
			30.1 µM (active)			O=C(Nc1cccc(Cl)c1)c1cc(S(=O)(=O)N2CCOCC2)cs1	
49.3 µM (active)	9.91 µM (active)	36.1 µM (active)				COc1ccc(/C(C)=N/OCC(=O)Nc2nc3ccccc3s2)cc1OC	62.2 µM (active)
